The NIST ThermoML archive (doi:10.1016/j.fluid.2016.05.032)
Numbers after ± are expanded uncertainties.

Conditions: Liquid, Closed cell (Static) method

| SMILES | vapor or sublimation pressure (345.15 K) [kPa] | vapor or sublimation pressure (350.15 K) [kPa] | vapor or sublimation pressure (355.15 K) [kPa] | vapor or sublimation pressure (360.15 K) [kPa] | vapor or sublimation pressure (365.15 K) [kPa] | vapor or sublimation pressure (320.15 K) [kPa] | further results |
| --- | --- | --- | --- | --- | --- | --- | --- |
| Cc1ccc(C)cc1 [1,4-dimethylbenzene] | 11.39 ± 0.061 | 13.9 ± 0.071 | 16.85 ± 0.085 | 20.3 ± 0.095 | 24.3 ± 0.1 |  |  |
| CCc1ccccc1 [ethylbenzene] |  |  |  |  |  | 4.076 ± 0.038 | vapor or sublimation pressure (326.15 K): 5.41 ± 0.047 kPa; vapor or sublimation pressure (332.15 K): 7.093 ± 0.052 kPa; vapor or sublimation pressure (338.15 K): 9.194 ± 0.058 kPa; vapor or sublimation pressure (344.15 K): 11.79 ± 0.071 kPa |
| CC(O)COC(C)COC(C)CO (stereo not given) [2-[2-(2-hydroxypropoxy)propoxy]-1-propanol] |  | 0.039 ± 0.006 |  |  |  |  | vapor or sublimation pressure (357.15 K): 0.063 ± 0.016 kPa; vapor or sublimation pressure (364.15 K): 0.098 ± 0.009 kPa; vapor or sublimation pressure (371.15 K): 0.15 ± 0.018 kPa; vapor or sublimation pressure (378.15 K): 0.224 ± 0.009 kPa |
| Cc1ccccc1C [1,2-dimethylbenzene] | 9.182 ± 0.061 | 11.27 ± 0.074 | 13.73 ± 0.081 | 16.62 ± 0.095 | 20 ± 0.11 |  |  |
| Cc1cccc(C)c1 [1,3-dimethylbenzene] | 11 ± 0.058 | 13.44 ± 0.07 | 16.32 ± 0.083 | 19.68 ± 0.098 | 23.59 ± 0.1 |  |  |
| Cc1ccccc1 [toluene] |  |  |  |  |  | 10.77 ± 0.052 | vapor or sublimation pressure (315.15 K): 8.622 ± 0.044 kPa; vapor or sublimation pressure (325.15 K): 13.34 ± 0.059 kPa; vapor or sublimation pressure (330.15 K): 16.4 ± 0.071 kPa; vapor or sublimation pressure (335.15 K): 20.02 ± 0.08 kPa |
